Reference: US12291504B2 (University of Pittsburgh—Of the Commonwealth System of …, priority 2018, dated 2025)
Read-outs that look alike come from different tables or passages of the source. One block for each compound: values may come before it.

What was measured:
[1] = target: T1, SULT1A3 (Homo sapiens, UniProt P0DMM9); experiment: Equilibrium binding studies, SULT1A3 intrinsic fluorescence titration; design: Wild-type and mutant SULT1A3 coding regions were inserted into a pGEX-6P expression vector; N-His/GST/MBP triple-tag (N, cleaved yes); made in house; host or cells: E. coli BL21(DE3)
Method: 4-Tam binding affinities were determined in the absence and presence of saturating PAP. Binding was monitored via ligand-induced changes in SULT1A3 intrinsic florescence (λex=290 nm, λem=340 nm). Fluorescence intensities are normalized relative to [4-Tam]=0. Each data-point is the average of two independent determinations. Conditions: SULT (150 nM, active sites), PAP (0 or 0.50 mM), KPO4 (50 mM), pH 7.5, 25±2° C. The line through the data represents the least-squares best fit to a model that assumes a binding stoichiometry of one 4-Tam per subunit.
Equilibrium Binding Studies. In all cases, ligand binding to SULT1A3 was monitored via changes in the intrinsic fluorescence of the enzyme (λex=290 nm, λem=340 nm). Conditions: SULT (50 nM, active sites), KPO4 (50 mM), pH 7.5, 25±2° C. Titrations were performed in triplicate. Data were averaged and least-squares fit using a model that assumes a single binding site per monomer (29-31). Ligand concentration was varied from 0.10-40×Kd.
As is seen in Eq. 6, Kiso and kcat ratios approach equivalence as Kiso becomes >>1. To assess the extent to which this equivalence holds for SULT1A3, Kiso values were determined as described previously (29-33). In short—As nucleotide binds and the cap closes, a pore forms at the acceptor-binding site. The affinity of an acceptor that is too large to pass through the pore is diminished by the presence of nucleotide, which fosters cap closure. At saturating nucleotide, the apparent affinity, Kapp, of such acceptors for the fully cap-closed enzyme is given by Equation 7 (29-33), where Kd is the affinity for the cap-open (nucleotide-free) form of the enzyme. Kapp=Kd×(1+Kiso) (7) Kapp and Kd were obtained by fitting titrations that monitor changes in SULT1A3 intrinsic fluorescence as a function of the concentration of 4-hydroxytamoxifen, a large acceptor (29) (see, FIG. 2). Titrations were performed at 0 and saturating PAP (0.50 mM, 17×Kd).

[2] = target: T1, SULT1A3; experiment: SULT1A3 inhibition studies, 1-HP initial-rate fluorescence assay; format: biochemical; design: Wild-type and mutant SULT1A3 coding regions were inserted into a pGEX-6P expression vector; N-His/GST/MBP triple-tag (N, cleaved yes); made in house; host or cells: E. coli BL21(DE3); inhibition: dose or concentration left out as unconfirmed; settings: for inhibition of SULT1A3 (in words): Ki could not be determined
Method: The initial rates of SULT catalyzed 1-HP sulfonation are plotted as a function of inhibitor concentration, and are normalized relative to [inhibitor]=0. Enzyme activity was monitored by the sulfonation dependent change in 1-HP fluorescence (λex=325 nm, λem=370 nm). Less than 5% of the concentration-limiting substrate converted at the reaction endpoint was consumed during initial-rate measurements. Each point is the average of three independent determinations. Conditions: SULT (20 nM, active sites), PAPS (0.50 mM, 17×Km), 1-HP (5.0 μM, 61×Km), KPO4 (50 mM), pH 7.5, 25±2° C.
(§1) Initial-Rate Studies. Initial-rate parameters for the labeled or mutant SULT1A3 constructs were determined using a previously described 1-HP assay (25). Briefly, reactions were initiated by addition of PAPS (0.50 mM, 17×Km) to a solution containing enzyme (20 nM, active sites), 1-HP (2.0 μM, ˜24×Km), and KPO4 (50 mM), pH 7.5, 25±2° C. Reactions were monitored via fluorescence change associated with the conversion of 1-HP to 1-HP-S (λex=325 nm, λem=370 nm). Keq for the 1-HP sulfonation reaction is −250. Given the reaction conditions outlined above, ≥99% of 1-HP is converted to 1-HP-S, and ˜0.4% of PAPS is converted to PAP at equilibrium. […] Reaction progress curves were analyzed to obtain initial-rate parameters as described previously (26,27).
(§2) Inhibition studies. Inhibition parameters were determined under conditions identical to those described above (see, Initial-Rate Studies) except that [1-HP] was increased to 5.0 μM (˜61×Km) and inhibitor concentration was varied between 0.20-20×Ki. Ki was obtained using a least-squares fit to the following partial inhibition equation (25,28): v=kcat·(Ki+(1/kcat inh)·[I])/(Ki+[I]), where kcat inh is enzyme turnover at saturating substrates and allosteric inhibitor.
as §1, with “(47).” for “(25).”, “˜250.” for “−250.”, “(48,49).” for “(26,27).”
as §2, with “(47,50): V/Vax=(Ki+α·[I])/(Ki+[I]),” for “(25,28): v=kcat·(Ki+(1/kcat inh)·[I])/(Ki+[I]),”, “α” for “kcat inh”, “is percentage of” for “is”, “turnover remaining” for “turnover”

[3] = target: SULT1A1 (Homo sapiens, UniProt P50225); experiment: SULT1A1 inhibition, 1-HP initial-rate assay; format: biochemical; settings: ND = inhibition was not detected at 30 μM compound, parentheses one standard error
Method: as §2
as §2, with “(47,50): V/Vax=(Ki+α·[I])/(Ki+[I]),” for “(25,28): v=kcat·(Ki+(1/kcat inh)·[I])/(Ki+[I]),”, “α” for “kcat inh”, “is percentage of” for “is”, “turnover remaining” for “turnover”

[4] = target: T2, SULT1E1 (Homo sapiens, UniProt P49888); experiment: SULT1E1 inhibition test; format: biochemical; settings: at 50 uM
T2 sequence (P49888 1-294): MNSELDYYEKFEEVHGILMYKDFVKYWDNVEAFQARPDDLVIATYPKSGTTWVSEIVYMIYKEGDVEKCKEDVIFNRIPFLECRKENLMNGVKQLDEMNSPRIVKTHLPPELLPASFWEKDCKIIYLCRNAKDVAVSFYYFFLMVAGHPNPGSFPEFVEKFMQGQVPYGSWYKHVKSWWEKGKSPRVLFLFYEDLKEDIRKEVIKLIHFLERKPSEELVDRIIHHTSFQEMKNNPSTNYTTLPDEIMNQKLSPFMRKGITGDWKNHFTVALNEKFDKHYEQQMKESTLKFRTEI

[5] = target: T3, SULT2A1 (Homo sapiens, UniProt Q06520); experiment: SULT2A1 inhibition test; format: biochemical; settings: at 50 uM
T3 sequence (Q06520 1-285): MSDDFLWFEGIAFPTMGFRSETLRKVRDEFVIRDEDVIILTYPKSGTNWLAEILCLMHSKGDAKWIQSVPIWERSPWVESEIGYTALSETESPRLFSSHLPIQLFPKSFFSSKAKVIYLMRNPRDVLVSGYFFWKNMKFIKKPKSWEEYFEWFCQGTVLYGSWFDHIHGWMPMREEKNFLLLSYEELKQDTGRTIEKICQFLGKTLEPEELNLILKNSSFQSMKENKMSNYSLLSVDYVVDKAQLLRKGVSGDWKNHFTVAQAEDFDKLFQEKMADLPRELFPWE

[6] = target: Green Monkey (1A3) (Chlorocebus sabaeus, UniProt Z9LO20H8W3); experiment: Inhibition of SULT1A3 homologues in different species: Green Monkey; format: biochemical
Method: (§3) Compounds 12, 23 and 25 were also tested for Inhibition of SULT1A3 in different species.
(§4) Inhibition of SULT1A3 Homologues in Different Species. SULT1A3 is only expressed in humans and higher primates. SULT1D1 is the isoform expressed in dogs and rodents that sulfonates neurotransmitters and is most similar to SULT1A3. Three synthesized allosteres (12, 23, and 25) were tested against both 1A3 and 1D1 from different species in order to explore testing in animal models. […] Mice have been engineered such that their SULT1A1/2 enzymes have been knocked out and replaced with the human versions of those isoforms.

[7] = target: Rhesus Macaque (1A3) (Macaca mulatta, UniProt A0A5F7ZQH3); experiment: Inhibition of SULT1A3 homologues in different species: Rhesus Macaque; format: biochemical
Method: as §3, §4

[8] = target: Dog (1D1) (Canis lupus familiaris, UniProt A0A8I3RXJ1); experiment: Inhibition of SULT1A3 homologues in different species: Dog; format: biochemical
Method: as §4, with “Compounds 12, 23 and 25 were also tested for Inhibition of SULT1A3 in different species. Inhibition” for “Inhibition”

[9] = target: Mouse (1D1) (Mus musculus, UniProt Q3UZZ6); experiment: Inhibition of SULT1A3 homologues in different species: Mouse; format: biochemical
Method: as §3, §4

[10] = target: T4, Rat (1D1) (Rattus norvegicus, UniProt G3V9R3); experiment: Inhibition of SULT1A3 homologues in different species: Rat; format: biochemical
T4 sequence (G3V9R3 1-295): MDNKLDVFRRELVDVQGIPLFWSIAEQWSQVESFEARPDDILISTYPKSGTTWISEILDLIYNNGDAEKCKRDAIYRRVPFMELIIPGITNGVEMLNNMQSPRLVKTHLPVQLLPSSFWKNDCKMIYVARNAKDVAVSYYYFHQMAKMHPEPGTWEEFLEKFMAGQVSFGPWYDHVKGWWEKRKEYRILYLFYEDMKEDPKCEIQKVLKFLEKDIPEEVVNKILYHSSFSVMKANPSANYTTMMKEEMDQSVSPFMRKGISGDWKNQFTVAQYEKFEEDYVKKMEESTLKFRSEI
Method: as §3, §4

[11] = read-out: Kd, determined by fluorescence titration

T1 sequence (P0DMM9 whole entry): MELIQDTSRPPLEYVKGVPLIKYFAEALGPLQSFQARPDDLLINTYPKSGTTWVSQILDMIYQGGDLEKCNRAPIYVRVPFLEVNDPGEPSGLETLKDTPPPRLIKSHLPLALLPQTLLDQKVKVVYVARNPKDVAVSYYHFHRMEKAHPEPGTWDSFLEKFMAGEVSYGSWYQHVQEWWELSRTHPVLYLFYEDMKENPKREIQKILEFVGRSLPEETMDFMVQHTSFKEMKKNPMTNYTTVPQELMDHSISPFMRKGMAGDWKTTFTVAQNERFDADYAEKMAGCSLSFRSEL
Dog (1D1), sequence (A0A8I3RXJ1 entry or part of it): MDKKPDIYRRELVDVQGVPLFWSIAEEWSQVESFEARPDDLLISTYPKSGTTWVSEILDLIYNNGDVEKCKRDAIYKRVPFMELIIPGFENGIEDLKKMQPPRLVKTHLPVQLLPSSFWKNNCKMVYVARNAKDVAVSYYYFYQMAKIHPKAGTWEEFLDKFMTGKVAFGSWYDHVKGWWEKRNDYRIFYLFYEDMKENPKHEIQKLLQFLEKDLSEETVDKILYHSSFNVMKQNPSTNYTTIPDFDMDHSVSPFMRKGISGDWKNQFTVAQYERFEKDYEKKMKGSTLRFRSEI
Mouse (1D1), sequence (Q3UZZ6 whole entry): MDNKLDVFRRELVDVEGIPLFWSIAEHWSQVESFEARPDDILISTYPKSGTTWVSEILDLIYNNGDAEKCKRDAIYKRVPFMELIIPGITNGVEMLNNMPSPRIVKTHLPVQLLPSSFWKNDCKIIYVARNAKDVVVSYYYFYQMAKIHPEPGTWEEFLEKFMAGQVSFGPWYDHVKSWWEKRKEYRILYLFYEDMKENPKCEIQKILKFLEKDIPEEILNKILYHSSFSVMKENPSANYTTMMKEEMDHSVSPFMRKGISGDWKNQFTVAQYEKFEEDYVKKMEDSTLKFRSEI
SULT1A1, sequence (P50225 whole entry): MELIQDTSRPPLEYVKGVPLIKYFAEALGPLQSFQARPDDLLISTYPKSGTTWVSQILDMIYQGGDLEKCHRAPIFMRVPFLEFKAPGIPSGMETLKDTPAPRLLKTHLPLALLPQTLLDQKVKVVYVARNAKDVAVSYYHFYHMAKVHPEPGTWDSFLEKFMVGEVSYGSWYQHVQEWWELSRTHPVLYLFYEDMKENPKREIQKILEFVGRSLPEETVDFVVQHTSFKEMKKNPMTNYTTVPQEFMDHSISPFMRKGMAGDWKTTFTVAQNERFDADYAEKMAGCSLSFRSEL
Green Monkey (1A3), sequence (Z9LO20H8W3 1-295): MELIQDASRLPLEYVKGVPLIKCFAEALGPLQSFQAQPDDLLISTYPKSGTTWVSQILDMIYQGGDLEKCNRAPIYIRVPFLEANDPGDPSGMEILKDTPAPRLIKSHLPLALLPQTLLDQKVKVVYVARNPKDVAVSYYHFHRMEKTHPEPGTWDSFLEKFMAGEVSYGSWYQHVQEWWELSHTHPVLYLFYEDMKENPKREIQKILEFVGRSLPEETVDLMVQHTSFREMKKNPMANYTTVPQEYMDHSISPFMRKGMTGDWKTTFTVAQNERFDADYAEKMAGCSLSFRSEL
Rhesus Macaque (1A3), sequence (A0A5F7ZQH3 1-295): as the sequence (Z9LO20H8W3 1-295) above, with A7T, V15M, C23Y, R230K, Y247F, A278E counted along it

Kd ([1]; saturating PAP 0.50 mM, SULT 150 nM, read-out: Kd (+PAP)): 5400 nM
Compound: 4-Hydroxytamoxifen [Compound 4-Tam, reference compound]

Ki [3]: 3.1 µM
inhibition ([3]; read-out: SULT1A1 Enzyme Inhibition at Saturation/%): 61%
inhibition of SULT1E1 [4]: no inhibition was detected
inhibition of SULT2A1 [5]: no inhibition was detected
Green Monkey (1A3) % inh [6]: 91 (4) %
Ki ([6]; parentheses one standard error): 72 nM
Rhesus Macaque (1A3) % inh [7]: 97 (2) %
Ki ([7]; parentheses one standard error): 12 nM
Dog (1D1) % inh [8]: 81 (4) %
Ki ([8]; standard error in neighbouring cell): 117 nM
Mouse (1D1) % inh [9]: 92 (3) %
Ki ([9]; parentheses one standard error): 65 nM
Rat (1D1) % inh [10]: 37 (4) %
Ki ([10]; parentheses one standard error): 270 nM
affinity for SULT1A3 (in words) [2]: low nanomolar affinity
Ki ([2]; ND = inhibition was not detected at 30 μM compound, parentheses one standard error, read-out: SULT1A3 Ki/μM): 0.0092 µM
Human (1A3) % inh ([2]; parentheses one standard error): 97 (2) %
inhibition ([2]; parentheses one standard error, read-out: SULT1A3 Enzyme Inhibition at Saturation/%): 96%
Ki ([2]; standard error in neighbouring cell, read-out: Human (1A3) Ki): 0.0096 µM
inhibition at saturation ([2]; text b218): almost complete inhibition
Compound: CC(C)Cc1ccc2cc(/C=C/C(N)=O)cnc2n1 [Compound 23, (E)-3-(7-Isobutylnaphthyridin-3-yl)acrylamide]

The next lines start with the compound.

Compound: CC(C)c1ccc2cc(CO)ccc2n1 [Compound 1, (2-Isopropylquinolin-6-yl)methanol]
inhibition of SULT1A3 (in words) [2]: do not inhibit
Kd [1, 11]: 160 nM

Compound: O=S(=O)(O)Oc1ccc2ccc3cccc4ccc1c2c34 [Compound 1-HP-S, reference compound]
Kd ([1]; read-out: Kd, affinity of 1-HP-S for SULT1A3): 240000 ± 30000 nM

Compound: CC(C)CCc1ccc2cc(CO)ccc2n1 [Compound 2]
inhibition of SULT1A3 (in words) [2]: do not inhibit
Kd [1, 11]: 87 nM
